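Cultured in 96-well plates, cells were exposed to test compound for 48 hours across five concentrations. The concentration for 50% growth inhibition is given as GI50.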 Activity calls are given as the source filed them. Rule as the data show it: active = GI50 up to about 1.1 µM and inactive = higher.
Experiments:
Assay in all cases: DTP human tumour cell line panel, 48 h
HT-29 = tested on: HT-29
HCT-116 = tested on: HCT-116
SK-MEL-28 = tested on: SK-MEL-28
OVCAR-8 = tested on: OVCAR-8
NCI-H23 = tested on: NCI-H23
MCF7 = tested on: MCF7
BT-549 = tested on: BT-549
HOP-62 = tested on: HOP-62
RPMI-8226 = tested on: RPMI-8226
UACC-62 = tested on: UACC-62
SW-620 = tested on: SW-620
SF-295 = tested on: SF-295
PC-3 = tested on: PC-3
SK-OV-3 = tested on: SK-OV-3
NCI-H522 = tested on: NCI-H522
OVCAR-4 = tested on: OVCAR-4
UACC-257 = tested on: UACC-257
HOP-92 = tested on: HOP-92
RXF 393 = tested on: RXF 393
SK-MEL-5 = tested on: SK-MEL-5

Measured: GI50

C=C1C[C@]23CC[C@@H]4C(CO)(CO)CC(=O)C[C@]4(C)[C@@H]2C(O)C[C@H]1C3 (some centres not stated)
inactive: HT-29 > 100 µM | HCT-116 > 100 µM | SK-MEL-28 > 100 µM | OVCAR-8 > 100 µM | NCI-H23 > 100 µM | MCF7 > 100 µM | BT-549 > 100 µM | HOP-62 > 100 µM | RPMI-8226 > 100 µM | UACC-62 > 100 µM | SW-620 > 100 µM | SF-295 > 100 µM | PC-3 > 100 µM | SK-OV-3 > 100 µM | NCI-H522 > 100 µM | OVCAR-4 > 100 µM | UACC-257 > 100 µM | HOP-92 > 100 µM

OCC1OC(c2n[nH]c3c(O)ncnc23)C(O)C1O (configuration not stated)
inactive: HT-29 11.9 µM | HCT-116 7.28 µM | RXF 393 58.6 µM | SK-MEL-28 50 µM | OVCAR-8 4.11 µM | NCI-H23 32.4 µM | MCF7 28.7 µM | BT-549 56.8 µM | HOP-62 9.79 µM | RPMI-8226 21.9 µM | UACC-62 31.6 µM | SW-620 4.17 µM | SF-295 33.1 µM | PC-3 6.68 µM | SK-OV-3 2.89 µM | NCI-H522 10.2 µM | OVCAR-4 7.89 µM | UACC-257 > 100 µM | SK-MEL-5 21.5 µM

O=C(c1cccs1)N1CCCN(C(=O)c2cccs2)C1=S
inactive: HT-29 > 100 µM | HCT-116 > 100 µM | RXF 393 36.1 µM | SK-MEL-28 > 100 µM | OVCAR-8 > 100 µM | NCI-H23 > 100 µM | MCF7 > 100 µM | BT-549 > 100 µM | HOP-62 26.2 µM | RPMI-8226 > 100 µM | UACC-62 > 100 µM | SW-620 > 100 µM | SF-295 > 100 µM | PC-3 > 100 µM | SK-OV-3 > 100 µM | UACC-257 > 100 µM | SK-MEL-5 > 100 µM

CN(C)c1ccc(/C=N/c2ccc(-c3nc4ccccc4o3)cc2)cc1
inactive: HT-29 56.2 µM | HCT-116 53.7 µM | SK-MEL-28 67.8 µM | OVCAR-8 31.8 µM | NCI-H23 32.7 µM | MCF7 40.9 µM | BT-549 32.4 µM | HOP-62 35 µM | UACC-62 38.7 µM | SW-620 86.3 µM | PC-3 29.7 µM | SK-OV-3 35 µM | NCI-H522 42.3 µM | OVCAR-4 33.5 µM | UACC-257 25.5 µM | HOP-92 70.3 µM | SK-MEL-5 13 µM

N[C@H]1CCc2c1nc1c(c2-c2ccccc2)CC[C@@H]1N
inactive: HT-29 11.9 µM | HCT-116 18.1 µM | OVCAR-8 39.8 µM | NCI-H23 25.2 µM | MCF7 21.8 µM | BT-549 12.4 µM | HOP-62 31.7 µM | RPMI-8226 34.4 µM | SW-620 12.3 µM | SF-295 18.5 µM | PC-3 15.3 µM | NCI-H522 16.2 µM | OVCAR-4 50.8 µM | UACC-257 > 10 µM | HOP-92 21.3 µM | SK-MEL-5 15.9 µM

CO/N=C(\C)c1ccc(Nc2nc3ccccc3c3occc23)cc1
inactive: HT-29 3.03 µM | HCT-116 14.3 µM | OVCAR-8 16.7 µM | NCI-H23 14.7 µM | MCF7 13.8 µM | BT-549 16.8 µM | HOP-62 16 µM | RPMI-8226 16.9 µM | UACC-62 12.1 µM | SF-295 16.7 µM | PC-3 16.2 µM | SK-OV-3 15.9 µM | NCI-H522 10.8 µM | UACC-257 17.3 µM | HOP-92 13.8 µM | SK-MEL-5 15.8 µM

O=C1N=C(SC2OC(CO)C(O)C(O)C2O)S/C1=C\c1ccccc1 (configuration not stated)
inactive: HT-29 > 100 µM | RXF 393 25.6 µM | SK-MEL-28 > 100 µM | OVCAR-8 > 100 µM | NCI-H23 > 100 µM | MCF7 > 100 µM | BT-549 > 100 µM | HOP-62 > 100 µM | RPMI-8226 > 100 µM | UACC-62 > 100 µM | SW-620 > 100 µM | SF-295 > 100 µM | PC-3 > 100 µM | SK-OV-3 > 100 µM | NCI-H522 > 100 µM | UACC-257 > 100 µM | SK-MEL-5 > 100 µM

CC(C)=CCC\C(C)=C/C=C/C(C)=C\C=C\C(C)=C/C=C/C=C(C)\C=C\C=C(C)/C=C/C=C(/C)CCC=C(C)C
inactive: HT-29 > 100 µM | HCT-116 > 100 µM | RXF 393 > 100 µM | SK-MEL-28 > 100 µM | OVCAR-8 > 100 µM | MCF7 > 100 µM | BT-549 > 100 µM | HOP-62 > 100 µM | UACC-62 > 100 µM | SW-620 > 100 µM | SF-295 > 100 µM | PC-3 > 100 µM | SK-OV-3 > 100 µM | OVCAR-4 > 100 µM | UACC-257 > 100 µM | HOP-92 > 100 µM | SK-MEL-5 > 100 µM
